Test results as given in PMC10020421 (Pharmacology, biochemistry, and behavior, 2023).
Where two headings read alike, the source gives them in different places.

Legend:
[1] = test system: myc-h5HT1a and 3HA-hCB1; format: cell-based, human; conditions: 5HT1a/CB1 cell line
[2] = biological target: 3HA-hCB1 (Homo sapiens, UniProt P21554); assay: CAMYEL BRET cAMP signalling assay, HEK cells expressing CB1 alone; format: cell-based; conditions: for cAMP response in the cell line expressing only CB1: CB1-alone HEK line, 5 μM forskolin; for Emax (% inhib of Fsk), ± SEM / pEC50 ± SEM: CB1 cell line
Chain of 3HA-hCB1 (P21554 whole entry): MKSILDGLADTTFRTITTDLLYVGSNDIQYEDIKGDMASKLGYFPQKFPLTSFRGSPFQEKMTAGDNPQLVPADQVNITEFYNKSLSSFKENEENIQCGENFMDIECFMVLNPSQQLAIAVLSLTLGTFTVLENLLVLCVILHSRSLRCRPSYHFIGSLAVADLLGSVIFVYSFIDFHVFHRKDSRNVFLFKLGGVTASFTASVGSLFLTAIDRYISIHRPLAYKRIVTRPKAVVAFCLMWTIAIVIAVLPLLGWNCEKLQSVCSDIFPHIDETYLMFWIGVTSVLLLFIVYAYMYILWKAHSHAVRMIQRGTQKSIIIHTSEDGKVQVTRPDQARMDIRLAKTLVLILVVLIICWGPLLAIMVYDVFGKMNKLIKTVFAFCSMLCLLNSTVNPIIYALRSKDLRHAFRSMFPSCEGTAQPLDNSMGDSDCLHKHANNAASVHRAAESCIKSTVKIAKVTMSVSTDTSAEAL

[3] = test system: C57BL/6 mice; assay: THC drug discrimination in mice; format: in vivo, mouse; conditions: for Effect on response rates compared to vehicle: alone or in combination with 3 mg/kg pFPP, either sex; for AMB-FUBINACA ED50 (95% confidence limits), + Saline: with saline
[4] = biological target: T1, myc-h5HT1a and 3HA-hCB1 (Homo sapiens, UniProt P08908); format: cell-based; conditions: 5HT1a/CB1 cell line, in the presence of 31.6 nM 8OH-DPAT
T1 sequence (P08908 1-422): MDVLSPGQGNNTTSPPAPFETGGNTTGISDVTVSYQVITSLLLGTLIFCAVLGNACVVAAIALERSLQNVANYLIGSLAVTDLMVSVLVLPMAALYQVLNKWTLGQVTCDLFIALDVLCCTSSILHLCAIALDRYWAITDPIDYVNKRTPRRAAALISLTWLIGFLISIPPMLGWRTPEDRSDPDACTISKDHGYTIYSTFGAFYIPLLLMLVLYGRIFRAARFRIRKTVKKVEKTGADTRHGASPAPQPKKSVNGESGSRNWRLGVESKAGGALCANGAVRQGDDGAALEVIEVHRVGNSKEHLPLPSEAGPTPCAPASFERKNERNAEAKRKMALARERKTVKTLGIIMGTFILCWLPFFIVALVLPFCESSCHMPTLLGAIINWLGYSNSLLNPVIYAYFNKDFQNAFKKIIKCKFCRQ

[5] = biological target: T2, myc-h5HT1a (Homo sapiens, UniProt P08908); assay: CAMYEL BRET cAMP signalling assay, HEK cells expressing 5HT1a alone; format: cell-based; conditions: 5HT1a-alone cell line, in the presence of 31.6 nM 8OH-DPAT
T2 sequence (P08908 1-422): T1 sequence (P08908 1-422)

[6] = AMB-FUBINACA metabolism in rat liver microsomes; format: in vitro ADME; conditions: pFPP 0.59, 1.18, 2.36 μg/ml
[7] = AMB-FUBINACA metabolism in human liver microsomes; format: in vitro ADME; conditions: pFPP 0.59, 1.18, 2.36 μg/ml
[8] = biological target: 5HT1a; conditions: ref Scherman et al., 1988; cited from earlier work
[9] = test system: Long Evans rats; assay: Plethysmography and telemetry in rats
[10] = inhibition of 5 μM forskolin-induced cAMP, drug alone

CCCN(CCC)C1CCc2cccc(O)c2C1 (centres unmarked) [8OH-DPAT, 8-hydroxy DPAT]
Emax (% inhib of Fsk), ± SEM ([1]; drug alone): 66.6 ± 1.3 % inhib of Fsk | pEC50 ± SEM [1, 10]: 8.39 ± 0.21 | cAMP response in the cell line expressing only CB1 [2]: without showing activity

Fc1ccc(N2CCNCC2)cc1 [pFPP, para-fluorophenylpiperazine]
Cannabimimetic (THC-like discriminative stimulus) effects ([3]; 3 mg/kg pFPP by itself): did not produce cannabimimetic effects by itself | Effect on potency of THC-like discriminative stimulus effects of THC or AMB-FUBINACA ([3]; 3 mg/kg pFPP co-administered): nor did it alter the potency | Effect on response rates ([3]; 10 mg/kg pFPP alone, probe tests, data not shown): substantial decreases in response rates | Antagonism of cAMP inhibition by 8OH-DPAT [4]: not observed to have any antagonist effect | pEC50 ± SEM [1, 10]: ~5.20 ± 0.18^$ | Antagonism of cAMP inhibition by 8OH-DPAT [5]: not observed to have any antagonist effect | cAMP response in the cell line expressing only CB1 [2]: no pFPP response was observed | Effect on AMB-FUBINACA metabolism [6]: not altered by any concentration of pFPP | Effect on AMB-FUBINACA metabolism [7]: not altered by any concentration of pFPP | previously reported affinity (pKi) [8]: 6.52 | Effect on heart rate in comparison to vehicle ([9]; 10 mg/kg pFPP alone, i.p.): only early and transient decreases | Effect on respiratory minute volume across the post-injection session ([9]; 10 mg/kg pFPP alone, i.p.): significant decrease | Effect on temperature in comparison to vehicle ([9]; 10 mg/kg pFPP alone, i.p.): only early and transient decreases | Effect of co-administration on duration of AMB-FUBINACA heart rate decreases ([9]; 10 mg/kg pFPP with 0.3 or 1 mg/kg AMB-FUBINACA): shortened the duration

CCCCCc1cc(O)c2c(c1)OC(C)(C)[C@@H]1CCC(C)=C[C@@H]21 [THC, Δ^9-tetrahydrocannabinol]
Effect on response rates compared to vehicle [3]: neither cannabinoid (alone or in combination with pFPP) significantly affected response rates | THC ED50 (95% confidence limits), Alone ([3]; female mice, i.p., trained to discriminate 5.6 mg/kg THC from vehicle): 1.46 mg/kg (0.62-3.40)

COC(=O)[C@@H](NC(=O)c1nn(Cc2ccc(F)cc2)c2ccccc12)C(C)C [AMB-FUBINACA]
Effect on response rates compared to vehicle [3]: neither cannabinoid (alone or in combination with pFPP) significantly affected response rates | Potency relative to THC in drug discrimination ([3]; both sexes, more potent than THC): 49-70 fold | AMB-FUBINACA ED50 (95% confidence limits), + Saline ([3]; female mice, i.p.): 0.03 mg/kg (0.006-0.14) | AMB-FUBINACA ED50 (95% confidence limits), + Saline ([3]; male mice, i.p.): 0.03 mg/kg (0.007-0.14) | Emax (% inhib of Fsk), ± SEM ([1]; + WAY100635 (1 μM)): 59.4 ± 9.17 % inhib of Fsk | pEC50 ± SEM ([1]; + WAY100635 (1 μM)): 9.11 ± 0.16 | Emax (% inhib of Fsk), ± SEM ([1]; + pFPP (31.6 μM)): 64.9 ± 3.5 % inhib of Fsk | pEC50 ± SEM ([1]; + pFPP (31.6 μM)): 9.39 ± 0.11 | Emax (% inhib of Fsk), ± SEM ([1]; drug alone): 61.0 ± 1.7 % inhib of Fsk | pEC50 ± SEM [1, 10]: 9.21 ± 0.14 | Emax (% inhib of Fsk), ± SEM ([2]; + WAY100635 (1 μM)): 55.7 ± 5.78 % inhib of Fsk | pEC50 ± SEM ([2]; + WAY100635 (1 μM)): 9.65 ± 0.14 | Emax (% inhib of Fsk), ± SEM ([2]; + pFPP (31.6 μM)): 57.9 ± 2.33 % inhib of Fsk | pEC50 ± SEM ([2]; + pFPP (31.6 μM)): 9.70 ± 0.16 | Emax (% inhib of Fsk), ± SEM ([2]; drug alone): 60.8 ± 1.7 % inhib of Fsk | pEC50 ± SEM [2, 10]: 9.56 ± 0.09 | Duration of decreases in heart rate ([9]; 0.3 mg/kg AMB-FUBINACA alone): approximately half of the post-injection session | Effect on respiratory minute volume ([9]; 0.3 mg/kg AMB-FUBINACA alone, early in the session): transient decrease | Time until which significant hypothermia continued ([9]; 0.3 mg/kg AMB-FUBINACA combined with 10 mg/kg pFPP): 165 min | Time after injection by which hypothermic effect dissipated ([9]; 0.3 mg/kg AMB-FUBINACA i.p. alone): ≤ 135 min | Duration of significant decreases in heart rate ([9]; 1 mg/kg AMB-FUBINACA alone): during most of the post-injection session | Effect on respiratory minute volume ([9]; 1 mg/kg AMB-FUBINACA alone and with 10 mg/kg pFPP, part or all of the post-injection session): significantly decreased minute volume | Duration of significant hypothermia ([9]; 1 mg/kg AMB-FUBINACA combined with 10 mg/kg pFPP): throughout the session | Duration of hypothermic effect ([9]; 1 mg/kg AMB-FUBINACA i.p. alone): endured for the entire 240-min post-injection measurement period | Effect on temperature ([9]; 0.03 and 0.1 mg/kg AMB-FUBINACA i.p.): no significant effect | Onset of significant hypothermic effect post-injection ([9]; 0.3 and 1 mg/kg AMB-FUBINACA combined with 10 mg/kg pFPP, vs pFPP alone): 75 min | Effect on temperature vs vehicle/saline ([9]; 0.3 and 1 mg/kg AMB-FUBINACA i.p. alone, one or more post-injection time points): produced hypothermia | Effect on heart rate ([9]; 0.3 and 1 mg/kg AMB-FUBINACA i.p., alone or with 10 mg/kg pFPP): decreased heart rate
